Results: PMC6114901, “An automated screening method for detecting compounds with goitrogenic activity using transgenic zebrafish embryos” (PLoS ONE, 2018)
Read-outs that look alike come from different tables or passages of the source.

Tests used:
zebrafish embryos [1] = conditions: read-out: LC50 (48–120 hpf); mortality; ref Fetter et al. [22]; cited from earlier work
[2] = system: thyroglobulin (tg:mCherry reporter gene); design: method as in PMID 25962731; conditions: manual positioning and image analysis; cited from earlier work
[3] = system: thyroid hormone levels (T4); conditions: cited from earlier work; for EC50: read-out: EC50 T4 reduction, reduction of thyroid hormone levels (immunostaining)
[4] = system: thyroglobulin (tg:mCherry reporter gene); experiment: animal or person; conditions: for EC50: Danio rerio, read-out: EC50 (tg:mCherry induction)
Protocol: In order to avoid interference of test chemicals with early thyroid gland development, zebrafish embryos were cultured in exposure medium until 48 hours post fertilization (hpf). Subsequently, they were exposed to seven known thyroid endocrine disrupters for 3 days (48 to 120 hpf). The non-goitrogenic compound 3,4-dichloroaniline, that is used as reference compound in the zebrafish acute embryo toxicity test was used as negative control. […] No solvents were used. […] Five concentrations and one control were tested per compound and replicate. In the second replicate the range of concentration was adjusted to improve fitting of concentration-response curves. […] Given the lack of appropriate spectral properties stability of exposure concentrations was not analysed for potassium perchlorate. Embryos were kept in the incubator at 26°C and a 14:10 hours light:dark cycle. The exposure was conducted in crystallisation dishes covered with watchmaker glasses with 30 embryos in 30 ml exposure medium (for exposure medium refer to [26]).
Embryos were positioned ventrally toward the microscope objective. Per embryo a bright field image, an autofocus fluorescence image and a Z-stack of 9 images were obtained. The Z-stack was required in case of autofocus failure and manual selection of the focal plane. Fluorescence images were obtained with 400 ms of fluorescent light exposure at maximal light intensity and a gain of 1. […] However, care was taken, that at least 10 images per concentration and replicates were assessed. To avoid a time bias during the analysis the sequence of wells for analysis was arranged in order to obtain a uniform distribution over the entire period of analysis.
The images were analysed using a KNIME workflow (Version 3.3.3., [29]) with the extension “KNIME image processing”. In brief, images were loaded into the workflow and the background was removed automatically using the “rolling ball” procedure of the image J plugin (rolling ball size set to 50 pixels). Subsequently the area containing the thyroid gland was manually selected by drawing a rectangle around the appropriate region using the interactive annotation node. […] If possible the autofocus images were used. In case that the thyroid gland was out of focus due to the presence of autofluorescing pigment cells, an appropriate image from the Z-stack was selected. All subsequent steps were conducted without any user interaction. […] Finally the sum of pixel (reflecting area of the thyroid gland and intensity of fluorescence) was calculated for the labeled area and used as a proxy of fluorescence intensity (see Fig 1 for an overview of the workflow). For each replicate the sum was of pixels was normalized by setting controls to the value of one. For data of individual embryos see S4 Table. The KNIME workflow used for image analysis is provided as supplement file (S1 Workflow).
To characterize the potency of the investigated goitrogenic compounds, we calculated EC50 values of tg:mcherry fluorescence using the pixel sum obtained from image analysis. For each replicate the fluorescence intensity was normalized by dividing the mean fluorescence intensity of each concentration with the mean control fluorescence intensity. Concentration-response curves of tgmcherry fluorescence were fitted to the data using the Hill-slope equation (Eq 1) and used to estimate EC50 values.
The parameter Min was set to 1 and the slope (p) and the maximum fluorescence (Max) were estimated.

[5] = ref chemspider (http://www.chemspider.com); cited from earlier work
zebrafish embryos [6] = experiment: in vivo
Protocol: (§1) Fish embryo acute toxicity tests were performed similar as described previously, using 10 or 25 embryos per concentration and replicate exposed in crystallization dishes from 48 to 120 hpf. No exchange of exposure media was performed. Lethality was identified by coagulation, missing heartbeat, a non–detached tail and/or missing of somites. Raw data for mortality and phenotypic assessment are provided as S1 Table. Concentration-response curves for mortality are shown in S2 Fig.

in vivo = conditions: zebrafish, in vivo, LC50 (48–120 hpf), mortality, embryos exposed 48–120 hpf
Protocol: as §1

[7] = 72 hpf, 987.65 µmol/L, replicate 2, 10 embryos
[8] = 72 hpf, 1481.48 µmol/L, replicate 2, 10 embryos
[9] = 72 hpf, 2222.22 µmol/L, replicate 2, 10 embryos
[10] = 72 hpf, 3333.33 µmol/L, replicate 2, 10 embryos
[11] = 72 hpf, 5000.00 µmol/L, replicate 2, 10 embryos
[12] = 96 hpf, 987.65 µmol/L, replicate 2, 10 embryos
[13] = 96 hpf, 1481.48 µmol/L, replicate 2, 10 embryos
[14] = 96 hpf, 2222.22 µmol/L, replicate 2, 10 embryos
[15] = 96 hpf, 3333.33 µmol/L, replicate 2, 10 embryos
[16] = 96 hpf, 5000.00 µmol/L, replicate 2, 10 embryos
[17] = 120 hpf, 937.50 µmol/L, replicate 1, 25 embryos
[18] = 120 hpf, 987.65 µmol/L, replicate 2, 10 embryos
[19] = 120 hpf, 1481.48 µmol/L, replicate 2, 10 embryos
[20] = 120 hpf, 1875.00 µmol/L, replicate 1, 25 embryos
[21] = 120 hpf, 2222.22 µmol/L, replicate 2, 10 embryos
[22] = 120 hpf, 3333.33 µmol/L, replicate 2, 10 embryos
[23] = 120 hpf, 3750.00 µmol/L, replicate 1, 25 embryos
[24] = 120 hpf, 5000.00 µmol/L, replicate 2, 10 embryos
[25] = 120 hpf, 7500.00 µmol/L, replicate 1, 25 embryos
[26] = 120 hpf, 15000.00 µmol/L, replicate 1, 25 embryos

Cn1cc[nH]c1=S [Methimazole, methimazole]
LC50 (zebrafish embryos [1]): 28800 µM | EC50 [2]: 551 µM | EC50 ([3]; ref Thienpont et al. [13]): 290 µM | TDI (T4) ([3]; zebrafish, in vivo): 75 | EC50 [4]: 279 µM | BMD 20 ([4]; zebrafish, in vivo): 186 µM | Slope ([4]; zebrafish, in vivo): 3.3 | TDI ([4]; zebrafish, in vivo): 103 | Log D (pH 7.4) [5]: -0.11

Oc1cccc(O)c1 [Resorcinol, resorcinol]
No Surviving (zebrafish embryos [6]; [7]): 10 | No hatched (zebrafish embryos [6]; [7]): 9 | No Surviving (zebrafish embryos [6]; [8]): 10 | No hatched (zebrafish embryos [6]; [8]): 10 | No Surviving (zebrafish embryos [6]; [9]): 10 | No hatched (zebrafish embryos [6]; [9]): 9 | No Surviving (zebrafish embryos [6]; [10]): 10 | No hatched (zebrafish embryos [6]; [10]): 10 | Total Sublethal (zebrafish embryos [6]; [10]): 6 | Ydef (yolk deformation) (zebrafish embryos [6]; [10]): 6 | No Surviving (zebrafish embryos [6]; [11]): 10 | No hatched (zebrafish embryos [6]; [11]): 10 | Total Sublethal (zebrafish embryos [6]; [11]): 8 | Ydef (yolk deformation) (zebrafish embryos [6]; [11]): 8 | No Surviving (zebrafish embryos [6]; [12]): 10 | No hatched (zebrafish embryos [6]; [12]): 10 | No Surviving (zebrafish embryos [6]; [13]): 10 | No hatched (zebrafish embryos [6]; [13]): 10 | Total Sublethal (zebrafish embryos [6]; [13]): 1 | Ydef (yolk deformation) (zebrafish embryos [6]; [13]): 1 | No Surviving (zebrafish embryos [6]; [14]): 10 | No hatched (zebrafish embryos [6]; [14]): 10 | Total Sublethal (zebrafish embryos [6]; [14]): 2 | Ydef (yolk deformation) (zebrafish embryos [6]; [14]): 2 | No Surviving (zebrafish embryos [6]; [15]): 10 | No hatched (zebrafish embryos [6]; [15]): 10 | Total Sublethal (zebrafish embryos [6]; [15]): 5 | Ydef (yolk deformation) (zebrafish embryos [6]; [15]): 2 | mch (malformation of chorda/scoliosis) (zebrafish embryos [6]; [15]): 5 | No Surviving (zebrafish embryos [6]; [16]): 10 | No hatched (zebrafish embryos [6]; [16]): 10 | Total Sublethal (zebrafish embryos [6]; [16]): 10 | Ydef (yolk deformation) (zebrafish embryos [6]; [16]): 7 | nobc (no blood circulation) (zebrafish embryos [6]; [16]): 2 | nomov (no spontaneous movement) (zebrafish embryos [6]; [16]): 10 | No Surviving (zebrafish embryos [6]; [17]): 25 | k/f (coagulated) (zebrafish embryos [6]; [17]): 0 | No Surviving (zebrafish embryos [6]; [18]): 10 | No hatched (zebrafish embryos [6]; [18]): 10 | EdY / EdP (heart or yolk sac edema) (zebrafish embryos [6]; [19]): 1 | No Surviving (zebrafish embryos [6]; [19]): 10 | No hatched (zebrafish embryos [6]; [19]): 10 | Total Sublethal (zebrafish embryos [6]; [19]): 1 | Ydef (yolk deformation) (zebrafish embryos [6]; [19]): 1 | No Surviving (zebrafish embryos [6]; [20]): 25 | k/f (coagulated) (zebrafish embryos [6]; [20]): 0 | nomov (no spontaneous movement) (zebrafish embryos [6]; [20]): 25 | EdY / EdP (heart or yolk sac edema) (zebrafish embryos [6]; [21]): 1 | No Surviving (zebrafish embryos [6]; [21]): 10 | No hatched (zebrafish embryos [6]; [21]): 10 | Total Sublethal (zebrafish embryos [6]; [21]): 2 | Ydef (yolk deformation) (zebrafish embryos [6]; [21]): 2 | No Surviving (zebrafish embryos [6]; [22]): 10 | No hatched (zebrafish embryos [6]; [22]): 10 | Total Sublethal (zebrafish embryos [6]; [22]): 5 | Ydef (yolk deformation) (zebrafish embryos [6]; [22]): 5 | mch (malformation of chorda/scoliosis) (zebrafish embryos [6]; [22]): 4 | EdY / EdP (heart or yolk sac edema) (zebrafish embryos [6]; [23]): 25 | No Surviving (zebrafish embryos [6]; [23]): 25 | Total Sublethal (zebrafish embryos [6]; [23]): 25 | k/f (coagulated) (zebrafish embryos [6]; [23]): 0 | EdY / EdP (heart or yolk sac edema) (zebrafish embryos [6]; [24]): 8 | No Surviving (zebrafish embryos [6]; [24]): 7 | No hatched (zebrafish embryos [6]; [24]): 10 | Total Sublethal (zebrafish embryos [6]; [24]): 7 | Ydef (yolk deformation) (zebrafish embryos [6]; [24]): 8 | mch (malformation of chorda/scoliosis) (zebrafish embryos [6]; [24]): 3 | nobc (no blood circulation) (zebrafish embryos [6]; [24]): 10 | nohb (no heartbeat) (zebrafish embryos [6]; [24]): 3 | nomov (no spontaneous movement) (zebrafish embryos [6]; [24]): 10 | No Surviving (zebrafish embryos [6]; [25]): 0 | k/f (coagulated) (zebrafish embryos [6]; [25]): 25 | No Surviving (zebrafish embryos [6]; [26]): 0 | k/f (coagulated) (zebrafish embryos [6]; [26]): 25 | LC10 (zebrafish embryos [6]; mortality after 72 h of exposure, S2 Fig, unit not given, in µM): 4701 | Slope (zebrafish embryos [6]; mortality concentration-response curve, 72 h of exposure): 21.9 | LC50 (in vivo): 5200 µM | EC50 ([3]; ref Thienpont et al. [13]): 82 µM | TDI (T4) ([3]; thyroid disruption index based on T4 reduction, ref Thienpont et al. [13]): 62 | EC50 [4]: 3.4 µM | BMD 20 ([4]; zebrafish, in vivo): 0.663 µM | Slope ([4]; zebrafish, in vivo): 0.78 | TDI ([4]; zebrafish, in vivo): 1529 | effect on tg:mCherry fluorescence ([4]; zebrafish, in vivo): weaker induction or repression of fluorescence | Log D (pH 7.4) [5]: 0.86
